Measured values published in the RepoRT retention time repository.

Assay: HILIC, Waters Atlantis Premier BEH Z-HILIC, 100 × 2.1 mm, 1.7 µm, 40 °C, 0.15 mL/min, estimated dead time 1.5 min; A: water + 20 mM ammonium carbonate + 5 µM medronic acid; B: 10% water + 90% acetonitrile + 2 mM ammonium carbonate + 0.5 µM medronic acid; gradient (min/%B) 0/100 18/60 18.1/20 21.5/20 22/100 23.5/100 25.5/100
Settings: stereoisomer not certain

Q: For `O=C(CO)COP(=O)(O)O` [Triose phosphate], which LC retention time is on record?
A: The LC retention time was 10.4 min.

Q: With `C=C(OP(=O)(O)O)C(=O)O` [PEP] as the molecule, how does the LC retention time read?
A: The LC retention time was 13.1 min.

Q: For `O=C(O)CCCCC1SCC2NC(=O)NC21` (configuration not stated) [Biotin], which LC retention time is on record?
A: The LC retention time was 4.67 min.

Q: Which LC retention time does the source give for `O=C(O)CCC(O)C(=O)O` (configuration not stated) [2-hydroxy glutaric acid] here?
A: Its LC retention time is 8.86 min.

Q: For `CCC(C)C(N)C(=O)O` (configuration not stated) [Isoleucine], which LC retention time is on record?
A: Its LC retention time is 6.4 min.

Q: Which LC retention time does the source give for `CC(=O)SCCNC(=O)CCNC(=O)C(O)C(C)(C)COP(=O)(O)OP(=O)(O)OCC1OC(n2cnc3c(N)ncnc32)C(O)C1OP(=O)(O)O` (configuration not stated) [Acetyl-CoA] here?
A: Its LC retention time is 9.69 min.

Q: For `Nc1ncnc2c1ncn2C1OC(COP(=O)(O)OP(=O)(O)O)C(O)C1O` (configuration not stated) [ADP], which LC retention time is on record?
A: The LC retention time was 11.6 min.

Q: Which LC retention time does the source give for `NC(=O)CCC(N)C(=O)O` (configuration not stated) [Glutamine] here?
A: The LC retention time was 9.87 min.

Q: Which LC retention time does the source give for `CC(=O)NC1C(OP(=O)(O)OP(=O)(O)OCC2OC(n3ccc(=O)[nH]c3=O)C(O)C2O)OC(CO)C(O)C1O` (configuration not stated) [UDP-GlcNAc] here?
A: Its LC retention time is 9.95 min.

Q: For `NC(=O)C1=CN(C2OC(COP(=O)(O)OP(=O)(O)OCC3OC(n4cnc5c(N)ncnc54)C(O)C3O)C(O)C2O)C=CC1` (configuration not stated) [NADH], which LC retention time is on record?
A: Its LC retention time is 8.31 min.

Q: For `Nc1ncnc2c1ncn2C1OC(CO)C(O)C1O` (configuration not stated) [Adenosine], which LC retention time is on record?
A: Its LC retention time is 3.63 min.

Q: With `O=C(O)CCC(=O)O` [Succinic Acid] as the molecule, how does the LC retention time read?
A: Its LC retention time is 8.9 min.

Q: For `NC(CCC(=O)O)C(=O)O` (configuration not stated) [Glutamic acid], which LC retention time is on record?
A: Its LC retention time is 9.81 min.

Q: Which LC retention time does the source give for `OCC1OC(O)C(O)C(O)C1O` (configuration not stated) [Hexose] here?
A: The LC retention time was 6.98 min.

Q: For `Cc1cc2nc3c(=O)[nH]c(=O)nc-3n(CC(O)C(O)C(O)COP(=O)(O)OP(=O)(O)OCC3OC(n4cnc5c(N)ncnc54)C(O)C3O)c2cc1C` (configuration not stated) [FAD], which LC retention time is on record?
A: The LC retention time was 7.67 min.

Q: Which LC retention time does the source give for `O=C(O)CCC(=O)C(=O)O` [2-Oxoglutaric acid] here?
A: Its LC retention time is 8.86 min.

Q: Which LC retention time does the source give for `O=P(O)(O)OCC1OC(O)C(O)C(O)C1O` (configuration not stated) [Glucose-6-phosphate] here?
A: The LC retention time was 12.3 min.

Q: For `O=C(O)C(CO)OP(=O)(O)O` (configuration not stated) [Phosphoglyceric acid A], which LC retention time is on record?
A: The LC retention time was 12.8 min.

Q: For `O=P(O)(O)OCC(O)CO` (configuration not stated) [Glycerol-3-phosphate], which LC retention time is on record?
A: The LC retention time was 10.4 min.

Q: Which LC retention time does the source give for `O=C(CO)C(O)C(O)C(O)COP(=O)(O)O` (configuration not stated) [Fructose 6-phosphate] here?
A: The LC retention time was 11.3 min.

Q: For `O=C1CC(C(=O)O)NC(=O)N1` (configuration not stated) [dihydroorotic acid], which LC retention time is on record?
A: Its LC retention time is 4.08 min.

Q: For `Nc1ncnc2c1ncn2C1OC(COP(=O)(O)O)C(O)C1O` (configuration not stated) [AMP], which LC retention time is on record?
A: Its LC retention time is 9.42 min.

Q: Which LC retention time does the source give for `C[N+](C)(C)CC(O)CC(=O)[O-]` (configuration not stated) [Carnitine] here?
A: Its LC retention time is 10.1 min.

Q: For `CC(O)C(=O)O` (configuration not stated) [Lactic Acid], which LC retention time is on record?
A: The LC retention time was 3.35 min.

Q: Which LC retention time does the source give for `O=C(O)CC(C(=O)O)C(O)C(=O)O` (configuration not stated) [Isocitric acid] here?
A: The LC retention time was 14 min.

Q: Which LC retention time does the source give for `Nc1ncnc2c1ncn2C1OC(COP(=O)(O)OP(=O)(O)OP(=O)(O)O)C(O)C1O` (configuration not stated) [ATP] here?
A: The LC retention time was 13.6 min.

Q: Which LC retention time does the source give for `CC(C)CC(N)C(=O)O` (configuration not stated) [Leucine] here?
A: The LC retention time was 6.46 min.

Q: For `CC(C)(COP(=O)(O)OP(=O)(O)OCC1OC(n2cnc3c(N)ncnc32)C(O)C1OP(=O)(O)O)C(O)C(=O)NCCC(=O)NCCS` (configuration not stated) [CoenzymeA], which LC retention time is on record?
A: The LC retention time was 11.4 min.

Q: With `CCC(=O)OC(CC(=O)[O-])C[N+](C)(C)C` (configuration not stated) [carnitine-C3] as the molecule, how does the LC retention time read?
A: The LC retention time was 6.46 min.

Q: For `NC(=O)c1ccc[n+](C2OC(COP(=O)(O)OP(=O)(O)OCC3OC(n4cnc5c(N)ncnc54)C(OP(=O)(O)O)C3O)C(O)C2O)c1` (configuration not stated) [NADP], which LC retention time is on record?
A: Its LC retention time is 13.4 min.

Q: Which LC retention time does the source give for `NC(=O)c1ccc[n+](C2OC(COP(=O)(O)OP(=O)(O)OCC3OC(n4cnc5c(N)ncnc54)C(O)C3O)C(O)C2O)c1` (configuration not stated) [NAD] here?
A: Its LC retention time is 9.95 min.

Q: Which LC retention time does the source give for `O=C(O)CC(O)(CC(=O)O)C(=O)O` [Citric acid] here?
A: Its LC retention time is 14.3 min.
